In paper PMC7344333 (Journal of medicinal chemistry, 2019):
One block for each compound: values may come before it.

How the values were obtained:
mice with SNI = experiment: spared nerve injury; assay type: in vivo, mouse; details: 10 mg/kg i.p. daily; 3, 10 and 21 days post-surgery, vs vehicle
[1] = system: dorsal root ganglia (DRG) neurons; experiment: calcium microfluorography in primary DRG sensory neurons; assay type: cell-based, rat; details: two repetitive applications of 10 μM
mice [2] = experiment: open field test, exploratory and locomotor activity; assay type: in vivo, mouse; details: at the selected dose (10 mg/kg i.p.)
[3] = system: B103 neuroblastoma cells overexpressing EGFP-LPA1 receptor; experiment: neurite retraction assay; assay type: cell-based; details: 15 minutes treatment
[4] = stability studies in PBS and cellular culture medium; assay type: physicochemical; details: up to 8 hours at 37 °C
[5] = system: B103 neuroblastoma cells overexpressing LPA1 receptor; experiment: transwell migration assay; assay type: cell-based; details: 1 μM in lower chamber, 5 h
[6] = system: DRG neurons (nociceptors); experiment: multielectrode array; assay type: cell-based, rat; details: 10 μM, two consecutive pulses
mice [7] = experiment: acetic acid-induced writhing assay; assay type: in vivo, mouse
LPA1 receptor = LPA1 receptor (Homo sapiens, UniProt Q92633); experiment: Ca2+ mobilization assay in LPA1 stably transfected RH7777 cells; assay type: cell-based; details: for LPA1 agonist activity (in words): highest concentration tested 10 μM
Chain of LPA1 receptor (Q92633 whole entry, the tested form may be a part): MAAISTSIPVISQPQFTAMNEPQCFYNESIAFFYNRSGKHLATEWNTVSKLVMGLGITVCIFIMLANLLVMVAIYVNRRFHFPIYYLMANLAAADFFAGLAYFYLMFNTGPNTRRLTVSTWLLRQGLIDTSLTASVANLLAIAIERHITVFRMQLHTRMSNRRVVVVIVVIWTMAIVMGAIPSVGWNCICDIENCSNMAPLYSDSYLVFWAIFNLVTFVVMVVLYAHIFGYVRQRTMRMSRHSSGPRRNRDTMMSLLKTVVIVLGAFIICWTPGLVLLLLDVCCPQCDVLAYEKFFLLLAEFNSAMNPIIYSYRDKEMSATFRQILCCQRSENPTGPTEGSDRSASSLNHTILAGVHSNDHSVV

[8] = system: EGFP-LPA1 fusion receptor; experiment: LPA1 receptor internalization assay; details: 1 μM
LPA1 = details: read-out: EC50 at LPA1; cited from earlier work
LPA2 = details: read-out: EC50 at LPA2; cited from earlier work

SMILES: O=C(CCCCCCCCCc1ccccc1)O[C@H](CBr)COP(=O)(O)O [Compound (S)-17, (2S)-1-Bromo-3-(phosphonooxy)propan-2-yl 10-phenyldecanoate]
mechanical nociceptive threshold (mice with SNI): significantly superior compared to vehicle-treated mice | Ca2+ response on repeated application [1]: induced a reduction of the Ca^2+ responses | exploratory or locomotor activity (mice [2]): did not induce any alteration in the exploratory or locomotor activity | neurite retraction [3]: induced neurite retraction | compound remaining (stability) ([4]; PBS): > 85% | compound remaining (stability) ([4]; culture media): > 85% | cell migration [5]: induced cell migration | neuronal firing of action potentials on repeated application [6]: provoked the firing of action potentials that were attenuated upon a second instillation | number of writhes after acute single administration (mice [7]): increased the number of writhes in the first minutes after the administration

SMILES: CCCCCCCC/C=C\CCCCCCCC(=O)OC[C@@H](O)COP(=O)(O)O [LPA, 1-oleoyl-sn-glycerol-3-phosphate, reference compound]
Ca2+ response on repeated application [1]: the Ca^2+ response is notably reduced in a second LPA application | Ca2+ response relative to 10 μM ionomycin (LPA1 receptor; 10 μM LPA, positive control): 30–33% | Emax at 10 µM (LPA1 receptor; RH7777): 100% | LPA1 internalization [8]: the receptor is internalized | neuronal firing of action potentials on repeated application [6]: provoked the firing of action potentials that were attenuated upon a second instillation

SMILES: CCCCCCCC/C=C\CCCCCCCC(=O)NCCC(=O)P(=O)(O)O [Compound 2]
EC50 (LPA1): 221 nM | EC50 (LPA2): 1090 nM

Next, values leading:

LPA1 agonist activity (in words) (LPA1 receptor): inactive
SMILES: CCCCCCCCCC/C=C\CCCCCCCC(=O)OC[C@@H](O)COP(=O)(O)O [Compound 16, (2R)-2-Hydroxy-3-(phosphonooxy)propyl (9Z)-icos-9-enoate]

LPA1 agonist activity (in words) (LPA1 receptor): inactive
SMILES: O=C(CCCCCCCc1ccccc1)OC[C@@H](O)COP(=O)(O)O [Compound 19, (2R)-2-Hydroxy-3-(phosphonooxy)propyl 8-phenyloctanoate]
